# Measurements as given in ChEMBL document CHEMBL1201862, “PubChem BioAssay data set” (2004).
#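 A five-concentration, 48-hour dose response in 96-well plates underlies each endpoint, interpolated linearly between surrounding concentrations. At the GI50, growth is halved.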 Activity calls are given as the source filed them. Rule as the data show it: active = GI50 up to about 1.1 µM and inactive = higher.
# Tests used:
# Assay in all cases: growth of human tumour cells (NCI), 48 h
# HT-29 = test system: HT-29
# RPMI-8226 = test system: RPMI-8226
# KM-20L2 = test system: KM-20L2
# IGROV-1 = test system: IGROV-1
# M19-MEL = test system: M19-MEL
# SF-539 = test system: SF-539
# OVCAR-3 = test system: OVCAR-3
# COLO 205 = test system: COLO 205
# K562 = test system: K562
# RXF 393 = test system: RXF 393
# UO-31 = test system: UO-31
# DMS-114 = test system: DMS-114
# OVCAR-5 = test system: OVCAR-5
# LXFL 529 = test system: LXFL 529
# Malme-3M = test system: Malme-3M
# NCI-H522 = test system: NCI-H522
# SF-295 = test system: SF-295
# SK-MEL-28 = test system: SK-MEL-28
# HL-60 = test system: HL-60
# NCI-H23 = test system: NCI-H23
# ACHN = test system: ACHN
# MOLT-4 = test system: MOLT-4
# SNB-75 = test system: SNB-75
# SK-OV-3 = test system: SK-OV-3
# UACC-62 = test system: UACC-62
# HOP-62 = test system: HOP-62
# OVCAR-4 = test system: OVCAR-4
# SNB-78 = test system: SNB-78
# SF-268 = test system: SF-268
# M14 = test system: M14
# KM12 = test system: KM12
# NCI-H460 = test system: NCI-H460
# U-251 = test system: U-251
# SR = test system: SR
# HOP-92 = test system: HOP-92
# HCT-116 = test system: HCT-116
# SNB-19 = test system: SNB-19
# SK-MEL-2 = test system: SK-MEL-2
# UACC-257 = test system: UACC-257
# CCRF-CEM = test system: CCRF-CEM
# A498 = test system: A498
# HOP-18 = test system: HOP-18
# DMS-273 = test system: DMS-273
# HCC 2998 = test system: HCC 2998
# HCT-15 = test system: HCT-15
# DLD-1 = test system: DLD-1
# SN12C = test system: SN12C
# SK-MEL-5 = test system: SK-MEL-5
# 786-0 = test system: 786-0
# NCI-H226 = test system: NCI-H226
# SW-620 = test system: SW-620
# EKVX = test system: EKVX
# OVCAR-8 = test system: OVCAR-8
# A549 = test system: A549
smiles,measurement,setting,value
COC(=O)C(Cc1ccccc1)/N=C/c1c(O)c(O)c(C(C)C)c2cc(C)c(-c3c(C)cc4c(C(C)C)c(O)c(O)c(/C=N/C(Cc5ccccc5)C(=O)OC)c4c3O)c(O)c12 (stereo not given),GI50,HT-29,17.6 µM (inactive)
same,GI50,RPMI-8226,22.4 µM (inactive)
same,GI50,KM-20L2,20 µM (inactive)
same,GI50,IGROV-1,28.7 µM (inactive)
same,GI50,M19-MEL,36.8 µM (inactive)
same,GI50,SF-539,17 µM (inactive)
same,GI50,OVCAR-3,17 µM (inactive)
same,GI50,COLO 205,30.3 µM (inactive)
same,GI50,K562,18.7 µM (inactive)
same,GI50,RXF 393,15 µM (inactive)
same,GI50,UO-31,22.3 µM (inactive)
same,GI50,DMS-114,> 10 µM (inactive)
same,GI50,OVCAR-5,15.5 µM (inactive)
same,GI50,LXFL 529,18 µM (inactive)
same,GI50,Malme-3M,40.6 µM (inactive)
same,GI50,NCI-H522,21.6 µM (inactive)
same,GI50,SF-295,15.8 µM (inactive)
same,GI50,SK-MEL-28,28.8 µM (inactive)
same,GI50,HL-60,18.9 µM (inactive)
same,GI50,NCI-H23,26.4 µM (inactive)
same,GI50,ACHN,32.1 µM (inactive)
same,GI50,MOLT-4,2.38 µM (inactive)
same,GI50,SNB-75,67.9 µM (inactive)
same,GI50,SK-OV-3,23.7 µM (inactive)
same,GI50,UACC-62,22.5 µM (inactive)
same,GI50,HOP-62,31.8 µM (inactive)
same,GI50,OVCAR-4,21.3 µM (inactive)
same,GI50,SNB-78,6.21 µM (inactive)
same,GI50,SF-268,29.5 µM (inactive)
same,GI50,M14,> 10 µM (inactive)
same,GI50,KM12,16.1 µM (inactive)
same,GI50,NCI-H460,23 µM (inactive)
same,GI50,U-251,17.3 µM (inactive)
same,GI50,SR,2.36 µM (inactive)
same,GI50,HOP-92,23.8 µM (inactive)
same,GI50,HCT-116,> 10 µM (inactive)
same,GI50,SNB-19,31.8 µM (inactive)
same,GI50,SK-MEL-2,20.9 µM (inactive)
same,GI50,UACC-257,21.6 µM (inactive)
same,GI50,CCRF-CEM,7.82 µM (inactive)
O=C1c2ccccc2N2Oc3ccccc3C12c1ccccc1 (stereo not given),GI50,HT-29,> 100 µM (inactive)
same,GI50,RPMI-8226,> 100 µM (inactive)
same,GI50,A498,> 100 µM (inactive)
same,GI50,KM-20L2,> 100 µM (inactive)
same,GI50,IGROV-1,> 100 µM (inactive)
same,GI50,HOP-18,> 100 µM (inactive)
same,GI50,DMS-273,> 100 µM (inactive)
same,GI50,M19-MEL,> 100 µM (inactive)
same,GI50,HCC 2998,> 100 µM (inactive)
same,GI50,SF-539,> 100 µM (inactive)
same,GI50,HCT-15,> 100 µM
same,GI50,COLO 205,> 100 µM (inactive)
same,GI50,DLD-1,> 10 µM (inactive)
same,GI50,SN12C,> 100 µM (inactive)
same,GI50,K562,> 100 µM (inactive)
same,GI50,RXF 393,> 100 µM (inactive)
same,GI50,UO-31,> 100 µM (inactive)
same,GI50,DMS-114,> 100 µM (inactive)
same,GI50,LXFL 529,> 100 µM (inactive)
same,GI50,SK-MEL-5,> 100 µM (inactive)
same,GI50,Malme-3M,> 100 µM (inactive)
same,GI50,786-0,> 100 µM (inactive)
same,GI50,NCI-H226,59.4 µM (inactive)
same,GI50,NCI-H522,> 100 µM (inactive)
same,GI50,SW-620,> 100 µM (inactive)
same,GI50,SF-295,> 100 µM (inactive)
same,GI50,EKVX,> 100 µM (inactive)
same,GI50,SK-MEL-28,> 100 µM (inactive)
same,GI50,HL-60,> 100 µM (inactive)
same,GI50,NCI-H23,> 100 µM (inactive)
same,GI50,ACHN,> 100 µM (inactive)
same,GI50,MOLT-4,> 100 µM (inactive)
same,GI50,SNB-75,> 100 µM (inactive)
same,GI50,OVCAR-8,> 100 µM (inactive)
same,GI50,SK-OV-3,> 100 µM (inactive)
same,GI50,A549,> 100 µM (inactive)
same,GI50,UACC-62,> 100 µM (inactive)
same,GI50,HOP-62,> 100 µM (inactive)
same,GI50,OVCAR-4,> 100 µM (inactive)
same,GI50,SNB-78,> 100 µM (inactive)
same,GI50,SF-268,> 100 µM (inactive)
same,GI50,M14,> 100 µM (inactive)
same,GI50,U-251,> 100 µM (inactive)
same,GI50,SR,> 100 µM (inactive)
same,GI50,HOP-92,92.7 µM (inactive)
same,GI50,HCT-116,> 100 µM (inactive)
same,GI50,SNB-19,> 100 µM (inactive)
same,GI50,UACC-257,> 100 µM (inactive)
same,GI50,CCRF-CEM,> 100 µM (inactive)
CCN(CC)CCN1C(=O)CC2[C@@H]3CCc4cc(OC)ccc4C3CC[C@]2(C)C1=O (stereo not given in full),GI50,HT-29,18.4 µM (inactive)
same,GI50,RPMI-8226,21.7 µM (inactive)
same,GI50,A498,36 µM (inactive)
same,GI50,KM-20L2,20.1 µM (inactive)
same,GI50,IGROV-1,75.2 µM (inactive)
same,GI50,M19-MEL,18.7 µM (inactive)
same,GI50,SF-539,0.0134 µM (active)
same,GI50,OVCAR-3,56.8 µM (inactive)
same,GI50,COLO 205,19.5 µM (inactive)
same,GI50,K562,15.2 µM (inactive)
same,GI50,RXF 393,30.5 µM (inactive)
same,GI50,UO-31,17.4 µM (inactive)
same,GI50,OVCAR-5,32.5 µM (inactive)
same,GI50,LXFL 529,16.4 µM (inactive)
same,GI50,Malme-3M,18.5 µM (inactive)
same,GI50,786-0,17.3 µM (inactive)
same,GI50,NCI-H522,22.3 µM (inactive)
same,GI50,SF-295,18.4 µM (inactive)
same,GI50,SK-MEL-28,17.9 µM (inactive)
same,GI50,HL-60,16.8 µM (inactive)
same,GI50,NCI-H23,91.2 µM (inactive)
same,GI50,ACHN,96.4 µM (inactive)
same,GI50,MOLT-4,> 10 µM (inactive)
same,GI50,SNB-75,33 µM (inactive)
same,GI50,SK-OV-3,> 100 µM (inactive)
same,GI50,UACC-62,19.3 µM (inactive)
same,GI50,HOP-62,25.2 µM (inactive)
same,GI50,OVCAR-4,> 100 µM (inactive)
same,GI50,SNB-78,28.5 µM (inactive)
same,GI50,SF-268,38.5 µM (inactive)
same,GI50,M14,17.7 µM (inactive)
same,GI50,KM12,33.5 µM (inactive)
same,GI50,NCI-H460,37.6 µM (inactive)
same,GI50,U-251,31.6 µM (inactive)
same,GI50,SR,> 10 µM (inactive)
same,GI50,HOP-92,24 µM (inactive)
same,GI50,HCT-116,> 10 µM (inactive)
same,GI50,SNB-19,> 100 µM (inactive)
same,GI50,SK-MEL-2,20.9 µM (inactive)
same,GI50,UACC-257,14.9 µM (inactive)
same,GI50,CCRF-CEM,18.8 µM (inactive)
